{"source": "patent US20090111697A1", "about": "“PROPIONIC ACID AS AN HERBICIDE” (Marrone Organic Innovations, priority 2007, published 2009)", "key": {"[1]": {"system": "Lactuca sativa (lettuce) seed", "test": "Germination of lettuce seeds in 96-well plate, dilution series", "type": "in vivo", "details": "11 days; for germination: 75 ul per well", "method": "The phytotoxic effects of propionic and formic acids were tested on germinating dicot seeds. A single seed of Lactuca sativa (lettuce) was placed in each well of a 96-well plate followed by a 75-ul aliquot of each solution in a stepwise (1:2) dilution series with DI water from 5% to 0%. DI water was used as a control. The plate was sealed with a plastic cover, and placed under greenhouse lights (12 hr light/dark cycle) for 11 days after which the germination at each concentration was recorded. See the results below."}, "[2]": {"system": "Seedlings of Lactuca sativa (lettuce)", "test": "High-throughput 96-well post-emergence assay on lettuce seedlings", "type": "in vivo", "method": "A high-throughput 96-well assay was used to test the efficacy of propionic acid as a post-emergence, non-selective herbicide. Seedlings of Lactuca sativa (lettuce) were grown in water agar in 96-well plates under continuous light. Propionic acid was added on the seedlings at a 2×-dilution series from 20% to 0%, and the minimum concentration needed for killing the seedling was recorded the next day. According to the results, propionic acid at a concentration of 0.156% was able to kill the lettuce seedling, whereas propionic acid at a concentration of 0.08% was not harmful for the plant."}, "[3]": {"system": "Lactuca sativa (lettuce) seeds", "test": "Pre-emergence pot test, propionic acid in corn gluten meal granules, lettuce", "type": "in vivo", "details": "one week", "method": "(§1) To further test the inhibitory effect of propionic acid on germinating seeds, pots with 6-cm diameter were filled with 60 mL of silty clay loam soil passed through a 2-mm sieve, and five (5) seeds of either Lactuca sativa (lettuce, representing a broadleaf plant) or Poa annua (annual bluegrass, representing a grass weed) were planted on the top. A solid form of the composition containing corn gluten meal granules (1-2 mm diameter) soaked in 0%, 10%, 15% or 20% propionic acid solution and dried were placed on the top of the soil at rates 0.1, 0.25, and 0.5 g/pot. The pots were kept at optimum water content under growth lights with a 12-h light/dark period at room temperature, and the number of germinated seeds was counted after one week. The results were reported as a percent of weed seeds germinated relative to the control treatment with no corn gluten meal added."}, "[4]": {"system": "Poa annua (annual bluegrass) seeds", "test": "Pre-emergence pot test, propionic acid in corn gluten meal granules, annual bluegrass", "type": "in vivo", "details": "one week", "method": "as §1"}, "[5]": {"system": "Poa annua (annual bluegrass)", "test": "Post-emergence spray test on annual bluegrass, 0.5-20%", "type": "in vivo", "details": "2 mL spray, four days after treatment", "method": "Pots with 6-cm diameter were filled with potting mix, and about thirty (30) seeds of Poa annua (annual bluegrass, representing a grass weed) were planted on the top. The seeds were germinated and the plants grown at optimum water content under growth lights with a 12-h light/dark period at room temperature until they were about 3 inches tall. To test the post-emergence effect of propionic acid, the plants were sprayed with 2 mL of water solutions containing increasing concentrations of propionic acid. The following concentrations (v/v %) were used: 0% (control), 0.5% 2.5%, 5%, 10%, and 20%. the plants were observed four days after the treatment."}, "[6]": {"system": "Poa annua", "test": "Post-emergence minimum concentration study in peat pots, 2-10%", "type": "in vivo", "details": "Poa annua in small peat pots, sprayed", "text": "To further test the minimum concentration of propionic acid required to control Poa annua (as an example of a grass weed) another study was set up in small peat pots using concentrations 0% (control), 2%, 4%, 6%, 8% and 10% of propionic acid. According to the results, a concentration of 8-10% is needed for good control."}, "[7]": {"test": "Solubility of hinokitiol in solvents", "type": "physicochemical", "details": "ambient conditions", "text": "The solubility of hinokitiol in proprionic acid was 60% w/w or 3 parts hinokitiol to 2 parts propionic acid by weight, under ambient conditions. Under the correct conditions the solubility of hinokitiol in propionic acid would exceed 3 parts hinokitiol to 2 parts propionic acid, by weight. Under ambient conditions, the maximum solubility of hinokitiol in ethanol is 50% w/w or 1 part hinokitiol to 1 part ethanol by weight."}, "[8]": {"details": "granules soaked in 10% propionic acid, 0.1 g/pot"}, "[9]": {"details": "granules soaked in 10% propionic acid, 0.25 g/pot"}, "[10]": {"details": "granules soaked in 10% propionic acid, 0.5 g/pot"}, "[11]": {"details": "granules soaked in 15% propionic acid, 0.1 g/pot"}, "[12]": {"details": "granules soaked in 15% propionic acid, 0.25 g/pot"}, "[13]": {"details": "granules soaked in 15% propionic acid, 0.5 g/pot"}, "[14]": {"details": "granules soaked in 20% propionic acid, 0.1 g/pot"}, "[15]": {"details": "granules soaked in 20% propionic acid, 0.25 g/pot"}, "[16]": {"details": "granules soaked in 20% propionic acid, 0.5 g/pot"}}, "data": [{"smiles": "O=CO", "note": "[Formic Acid, reference compound]", "values": [{"measurement": "germination", "setting": "[1]; 0.005% solution", "value": "+"}, {"measurement": "germination", "setting": "[1]; 0.01% solution", "value": "+ and −"}, {"measurement": "germination", "setting": "[1]; 0.02% solution", "value": "+ and −"}, {"measurement": "germination", "setting": "[1]; 0.05% solution", "value": "− and +"}, {"measurement": "germination", "setting": "[1]; 0.09% solution", "value": "−"}, {"measurement": "germination", "setting": "[1]; 0.19% solution", "value": "−"}, {"measurement": "germination", "setting": "[1]; 0.36% solution", "value": "−"}, {"measurement": "germination", "setting": "[1]; 0.75% solution", "value": "−"}, {"measurement": "germination", "setting": "[1]; 1.25% solution", "value": "−"}, {"measurement": "germination", "setting": "[1]; 2.50% solution", "value": "−"}, {"measurement": "germination", "setting": "[1]; 5.00% solution", "value": "−"}]}, {"smiles": "CCC(=O)O", "note": "[Propionic acid]", "values": [{"measurement": "germination", "setting": "[1]; 0.005% solution", "value": "+"}, {"measurement": "germination", "setting": "[1]; 0.01% solution", "value": "+"}, {"measurement": "germination", "setting": "[1]; 0.02% solution", "value": "+ and −"}, {"measurement": "germination", "setting": "[1]; 0.05% solution", "value": "− and +"}, {"measurement": "germination", "setting": "[1]; 0.09% solution", "value": "−"}, {"measurement": "germination", "setting": "[1]; 0.19% solution", "value": "−"}, {"measurement": "germination", "setting": "[1]; 0.36% solution", "value": "−"}, {"measurement": "germination", "setting": "[1]; 0.75% solution", "value": "−"}, {"measurement": "germination", "setting": "[1]; 1.25% solution", "value": "−"}, {"measurement": "germination", "setting": "[1]; 2.50% solution", "value": "−"}, {"measurement": "germination", "setting": "[1]; 5.00% solution", "value": "−"}, {"measurement": "threshold value for complete inhibition of seed germination", "setting": "[1]; lettuce seed", "value": 0.09, "unit": "%"}, {"measurement": "effect on the seedling", "setting": "[2]; concentration of 0.08%, next day", "value": "not harmful"}, {"measurement": "minimum concentration needed for killing the seedling", "setting": "[2]; lettuce seedlings, recorded the next day", "value": 0.156, "unit": "%"}, {"measurement": "germination rate (%) relative to untreated control", "setting": "[3]; [8]", "value": 50, "unit": "%"}, {"measurement": "germination rate (%) relative to untreated control", "setting": "[3]; [9]", "value": 75, "unit": "%"}, {"measurement": "germination rate (%) relative to untreated control", "setting": "[3]; [10]", "value": 42, "unit": "%"}, {"measurement": "germination rate (%) relative to untreated control", "setting": "[3]; [11]", "value": 83, "unit": "%"}, {"measurement": "germination rate (%) relative to untreated control", "setting": "[3]; [12]", "value": 25, "unit": "%"}, {"measurement": "germination rate (%) relative to untreated control", "setting": "[3]; [13]", "value": 42, "unit": "%"}, {"measurement": "germination rate (%) relative to untreated control", "setting": "[3]; [14]", "value": 42, "unit": "%"}, {"measurement": "germination rate (%) relative to untreated control", "setting": "[3]; [15]", "value": 67, "unit": "%"}, {"measurement": "germination rate (%) relative to untreated control", "setting": "[3]; [16]", "value": 33, "unit": "%"}, {"measurement": "germination rate (%) relative to untreated control", "setting": "[4]; [8]", "value": 37, "unit": "%"}, {"measurement": "germination rate (%) relative to untreated control", "setting": "[4]; [9]", "value": 44, "unit": "%"}, {"measurement": "germination rate (%) relative to untreated control", "setting": "[4]; [10]", "value": 22, "unit": "%"}, {"measurement": "germination rate (%) relative to untreated control", "setting": "[4]; [11]", "value": 44, "unit": "%"}, {"measurement": "germination rate (%) relative to untreated control", "setting": "[4]; [12]", "value": 52, "unit": "%"}, {"measurement": "germination rate (%) relative to untreated control", "setting": "[4]; [13]", "value": 30, "unit": "%"}, {"measurement": "germination rate (%) relative to untreated control", "setting": "[4]; [14]", "value": 44, "unit": "%"}, {"measurement": "germination rate (%) relative to untreated control", "setting": "[4]; [15]", "value": 37, "unit": "%"}, {"measurement": "germination rate (%) relative to untreated control", "setting": "[4]; [16]", "value": 96, "unit": "%"}, {"measurement": "herbicidal effect, visual observations", "setting": "[5]; 0.5% (v/v) in water", "value": "no herbicidal effect"}, {"measurement": "herbicidal effect, visual observations", "setting": "[5]; 10% (v/v) in water", "value": "symptoms of wilting, scorching and eventually, death"}, {"measurement": "herbicidal effect, visual observations", "setting": "[5]; 20% (v/v) in water", "value": "symptoms of wilting, scorching and eventually, death"}, {"measurement": "concentration needed for good control", "setting": "[6]", "value": "8-10%"}]}, {"smiles": "CC(C)c1cccc(=O)c(O)c1", "note": "[hinokitiol]", "values": [{"measurement": "maximum solubility in ethanol", "setting": "[7]", "value": 50, "unit": "% w/w"}, {"measurement": "solubility in propionic acid", "setting": "[7]", "value": 60, "unit": "% w/w"}]}]}
